Series [1] in a line: Liver microsomal stability. In kind it is in vitro ADME, mouse. Here is the method:
To evaluate the metabolic stability of our hit compound and assess its drug‐likeness, we investigated the microsomal stability of 17 by incubating it with mouse liver microsomes. We monitored the loss of the compound over time under CYP‐mediated metabolic pathways (Figure 7A). The natural logarithm of the percentage remaining of the compound, calculated by comparing the concentration at each time point with the t0 sample, was plotted against time, yielding a linear regression (R ^2 = 0.98).
The liver microsomal stability assay of compound 17 was conducted as previously described.^[ [47] ^] Briefly, mouse (CD‐1) liver microsomes (Thermo Fisher Scientific, Bremen, Germany) were used, and the reaction was initiated by the addition of NADPH. The incubation was carried out 37 °C for 15, 30, 45, and 60 min in a Thermomixer comfort (Eppendorf, Hamburg, Germany). The reaction was stopped by the addition of ice‐cold methanol containing IS. Finally, the samples were centrifuged, and the supernatants were injected into the LC‐MS. […] All experiments were performed in triplicate, and results were expressed as the in vitro microsomal half‐life (t 1/2), calculated using the equation t 1/2 = 0.693/b, where b is the slope of the linear regression obtained by plotting the natural logarithm of the remaining parent compound fraction against incubation time.
On the technique in general: Liver microsomes are a subcellular fraction often used to study metabolism.

Series [2] relates to JeKo‐1 cells. As to the kind of experiment: MTT cell viability assay, JeKo‐1. The class given is cell-based. The conditions noted are these: Homo sapiens, cytotoxicity, treated for 72 h, read-out: EC50 ± SD JeKo‐1. The method, then:
Cytotoxicity studies, assessing the activity of the synthetized compounds, were performed only on the molecules showing the best binding profile in the SPR assay. MTT test was performed on two cell lines known for overexpressing ROR1, particularly MTT assays were conducted on JeKo‐1 (human mantle cell lymphoma) and SH‐SY5Y (neuroblastoma), exposing them to different concentrations of compounds for 72 h (Table 2 ). […] This increased effectiveness is likely due to the high expression of the target protein in leukemia and other hematologic malignancies. […] A key structural difference in 18 and 19 compared to active compounds is the absence of the trifluoromethyl group on the aromatic ring. Indeed, the removal of the trifluoromethyl group (18) or the incorporation of an electron‐donating substituent (19) alters the interaction with the ATP‐binding pocket.
The JeKo‐1 mantle cell lymphoma (MCL) cell line, derived from mantle cell lymphoma of B‐cell lineage, was obtained from ATCC and was grown in RPMI supplemented with 10% v/v fetal bovine serum, 2 mM L‐glutamine, 100 U mL^−1 penicillin, and 0.1 mg mL^−1 streptomycin.
Cell viability was established by measuring mitochondrial metabolic activity with MTT. In brief, SH‐SY5Y (20 × 10^3 cells/well) and JeKo‐1 (10 × 10^3 cells/well) were plated into 96‐well plates for 24 h, then the compounds (1.56–50 μM) were added. […], cells were replaced with a fresh medium containing 0.5 mg mL^−1 MTT.^[ [45] ^] Cells were incubated for 1–3 h at 37 °C, then the medium was discarded, and formazan blue crystals in the cells dissolved with 100 μL per well of a solution containing isopropanol/HCl 0.1 M. The absorbance was measured at 570 nm using a microplate reader (Multiskan Go, Thermo Scientific, Waltham, MA, USA). Cell viability was expressed as a percentage relative to the untreated cells cultured in medium with 0.1% DMSO and set to 100%, whereas 10% DMSO was used as positive control and set to 0% of viability. The EC50 values were calculated using GraphPad Prism 8.0 software by nonlinear regression of dose‐response inhibition.
(In general: Formazan colour is commonly taken as a measure of viable cells.)

Series [3] deals with JeKo‐1 cells. As to the kind of experiment: Annexin V‐FITC/PI staining apoptosis, flow cytometry. In kind it is cell-based, human. To be noted: JeKo‐1, 20 μM, 72 h, early and late apoptosis. From the text: This observation aligns with previous studies reporting that ROR1 is highly expressed in B‐cell malignancies, including mantle cell lymphoma, where it plays a crucial role in survival signaling and resistance to apoptosis.^[ [10], [32] ^] Given the higher susceptibility of JeKo‐1 cells to the inhibitor, we selected this model for further apoptotic analysis. However, for completeness, apoptotic data for the SH‐SY5Y cell line are also provided in the Supporting Information (Figure S39, Supporting Information). Specifically, cells were incubated with compounds 17, 20, or 29 (20 μM) for 72 h and a flow cytometry analysis using Annexin V/PI staining was performed. After treatment, a very strong increase in the apoptotic response was observed, in both early and late apoptotic populations compared to the negative control (Figure 4 ). […] These findings are in accordance with the literature and further support the potential of ROR1 inhibition in promoting cell death in mantle cell lymphoma.^[ [33] ^]
Figure 4 Proapoptotic activity of compounds 17, 20, and 29 (20 μM) on JeKo‐1 cells treated for 72 h. A) Representative flow cytometry plots using Annexin V‐FITC/PI staining for apoptosis. B) Related quantitative analysis is reported. Data are expressed as a percentage of live, apoptotic, and necrotic cells. Results are shown as mean ± standard deviation (SD) from three independent experiments. *** denote p < 0.001 versus Ctrl.
Apoptosis of the cells was assessed using annexin V‐FITC/PI reagents. JeKo‐1 cells (60 × 10^3 cells/well) were seeded into 24‐well plates and incubated for 72 h with compounds (20 and 10 μM). After treatment, the collected cells were resuspended in a 100 μL assay buffer, then 5 Annexin V‐FITC and 1 PI reagents were added following incubation for 20 min at room temperature according to the manufacturer's protocol (Dead Cell Apoptosis Kits with Annexin V for Flow Cytometry, Thermo Fisher Scientific). Cells were analyzed with a Becton Dickinson FACScan flow cytometer using the Cell Quest software, version 4 (Franklin Lakes, NJ, USA).^[ [46] ^]
On the technique in general: A flow cytometer gives signals particle by particle.

These results are taken from PMC12276035, “Novel Para‐Phenylenediamine‐Based Derivatives as Receptor Tyrosine Kinase‐like Orphan Receptor 1 (ROR1) Inhibitors: An In Vitro Preliminary Characterization” (Chemmedchem, 2025).

In general, half-life refers to how long it takes for the measured level to halve. As a reminder, the EC50 is the concentration needed to bring the measured effect to its halfway point.

For `O=C(NCc1ccc(-c2ccccc2)cc1)Nc1ccc(NCC2CCNCC2)cc1C(F)(F)F` [Compound 17], in series [1] (after 60 min with mouse microsomes), the degradation entry was “≈ 20%”. Moreover, in series [1] (mouse (CD‐1) liver microsomes, NADPH, 37 °C), the half-life is ~3.3 h. Also, the EC50 with JeKo‐1 cells [2] turned out to be 10.3 ± 2.86 µM. In addition, the apoptotic cells in the series with JeKo‐1 cells [3] is 89.02 ± 3.12%.
